Assay results from ChEMBL document CHEMBL5291721, “A preclinical secondary pharmacology resource illuminates target-adverse drug reaction associations of marketed drugs” (Nat Commun, 2023).
“And” between values parts separate entries of the source, which are not always exact repeats. Equal entries are not always repeated.

Key:
[1] = molecular target: Muscarinic acetylcholine receptor M3 (Homo sapiens, UniProt P20309)
Cannabinoid receptor 1 = Cannabinoid receptor 1 (Homo sapiens, UniProt P21554); type: functional, cell-based
[2] = molecular target: Gamma-aminobutyric acid receptor subunit alpha-1 (Rattus norvegicus, UniProt P62813)
Histamine H1 receptor = Histamine H1 receptor (Homo sapiens, UniProt P35367)
[3] = molecular target: T1, 5-hydroxytryptamine receptor 2A (Homo sapiens, UniProt P28223); type: functional, cell-based
[4] = molecular target: T1, 5-hydroxytryptamine receptor 2A; type: functional, cell-based; remark: listed apart in the source
Glucocorticoid receptor = molecular target: T2, Glucocorticoid receptor (Homo sapiens, UniProt P04150)
T2 sequence (P04150 whole entry): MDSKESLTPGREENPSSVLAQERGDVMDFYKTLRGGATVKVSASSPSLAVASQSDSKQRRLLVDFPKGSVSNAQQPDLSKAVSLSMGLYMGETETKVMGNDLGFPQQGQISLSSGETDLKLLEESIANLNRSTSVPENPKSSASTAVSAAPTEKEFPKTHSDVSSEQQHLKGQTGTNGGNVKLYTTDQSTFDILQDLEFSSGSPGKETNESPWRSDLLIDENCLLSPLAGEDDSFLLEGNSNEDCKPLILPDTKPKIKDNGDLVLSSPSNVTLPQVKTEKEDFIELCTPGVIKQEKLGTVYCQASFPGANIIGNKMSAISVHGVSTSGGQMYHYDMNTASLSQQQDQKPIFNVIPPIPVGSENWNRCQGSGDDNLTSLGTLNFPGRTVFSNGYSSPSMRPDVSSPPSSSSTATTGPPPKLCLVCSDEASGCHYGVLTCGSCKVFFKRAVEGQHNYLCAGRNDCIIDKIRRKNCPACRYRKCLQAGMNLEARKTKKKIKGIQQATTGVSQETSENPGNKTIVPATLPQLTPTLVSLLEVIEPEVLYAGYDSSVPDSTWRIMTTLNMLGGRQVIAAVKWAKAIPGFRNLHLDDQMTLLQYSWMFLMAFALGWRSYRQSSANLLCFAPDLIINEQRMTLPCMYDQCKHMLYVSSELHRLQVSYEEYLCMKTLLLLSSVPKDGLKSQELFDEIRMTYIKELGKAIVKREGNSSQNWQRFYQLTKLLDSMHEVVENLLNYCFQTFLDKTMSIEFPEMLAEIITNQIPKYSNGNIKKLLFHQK

Progesterone receptor [5] = molecular target: T3, Progesterone receptor (Homo sapiens, UniProt P06401); type: functional
T3 sequence (P06401 whole entry): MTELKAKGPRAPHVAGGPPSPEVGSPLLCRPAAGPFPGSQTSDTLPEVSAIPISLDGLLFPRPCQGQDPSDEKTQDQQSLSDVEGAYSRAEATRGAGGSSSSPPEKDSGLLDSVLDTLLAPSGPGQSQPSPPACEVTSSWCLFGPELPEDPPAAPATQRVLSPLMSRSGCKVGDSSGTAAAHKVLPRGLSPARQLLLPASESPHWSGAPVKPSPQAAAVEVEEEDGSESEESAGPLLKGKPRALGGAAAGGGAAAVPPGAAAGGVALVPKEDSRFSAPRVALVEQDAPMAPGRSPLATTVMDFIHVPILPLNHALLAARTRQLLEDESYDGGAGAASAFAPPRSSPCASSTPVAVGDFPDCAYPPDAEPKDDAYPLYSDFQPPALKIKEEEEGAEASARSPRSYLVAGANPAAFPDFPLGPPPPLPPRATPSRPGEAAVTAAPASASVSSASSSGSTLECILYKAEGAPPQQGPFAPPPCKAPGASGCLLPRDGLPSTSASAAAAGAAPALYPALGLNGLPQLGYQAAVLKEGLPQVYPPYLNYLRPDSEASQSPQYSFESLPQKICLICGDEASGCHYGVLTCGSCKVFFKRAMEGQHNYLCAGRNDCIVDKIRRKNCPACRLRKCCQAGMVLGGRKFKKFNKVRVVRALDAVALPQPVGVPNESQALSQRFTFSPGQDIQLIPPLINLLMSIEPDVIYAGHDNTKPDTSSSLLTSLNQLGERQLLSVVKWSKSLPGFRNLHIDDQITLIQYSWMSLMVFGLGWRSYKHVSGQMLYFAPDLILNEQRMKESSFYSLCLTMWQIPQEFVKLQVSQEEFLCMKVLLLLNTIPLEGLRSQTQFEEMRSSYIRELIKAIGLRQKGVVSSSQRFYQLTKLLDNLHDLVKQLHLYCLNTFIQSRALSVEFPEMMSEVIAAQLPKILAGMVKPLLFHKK

Progesterone receptor [6] = molecular target: T3, Progesterone receptor; type: functional; remark: listed apart in the source
Mu-type opioid receptor = Mu-type opioid receptor (Homo sapiens, UniProt P35372)
[7] = molecular target: Prostaglandin G/H synthase 1 (Homo sapiens, UniProt P23219); type: functional
Note: assay procedure not described here.

Sequence of Prostaglandin G/H synthase 1 (P23219 whole entry): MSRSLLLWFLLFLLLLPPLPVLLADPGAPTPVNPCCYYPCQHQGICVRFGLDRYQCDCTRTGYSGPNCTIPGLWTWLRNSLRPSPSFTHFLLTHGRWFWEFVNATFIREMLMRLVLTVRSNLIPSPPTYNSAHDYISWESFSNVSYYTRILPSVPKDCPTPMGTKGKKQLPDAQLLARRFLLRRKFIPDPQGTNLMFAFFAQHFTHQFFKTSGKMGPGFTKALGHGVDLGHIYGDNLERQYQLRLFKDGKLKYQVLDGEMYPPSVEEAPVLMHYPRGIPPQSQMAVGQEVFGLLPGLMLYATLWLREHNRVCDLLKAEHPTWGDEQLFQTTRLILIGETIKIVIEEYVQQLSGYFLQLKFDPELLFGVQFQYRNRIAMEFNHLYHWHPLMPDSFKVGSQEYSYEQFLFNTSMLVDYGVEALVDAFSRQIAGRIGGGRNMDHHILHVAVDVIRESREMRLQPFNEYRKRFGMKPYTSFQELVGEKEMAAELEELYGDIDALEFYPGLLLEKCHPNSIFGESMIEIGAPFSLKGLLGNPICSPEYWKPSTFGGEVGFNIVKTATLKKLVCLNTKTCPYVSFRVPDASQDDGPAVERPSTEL
Sequence of Histamine H1 receptor (P35367 whole entry): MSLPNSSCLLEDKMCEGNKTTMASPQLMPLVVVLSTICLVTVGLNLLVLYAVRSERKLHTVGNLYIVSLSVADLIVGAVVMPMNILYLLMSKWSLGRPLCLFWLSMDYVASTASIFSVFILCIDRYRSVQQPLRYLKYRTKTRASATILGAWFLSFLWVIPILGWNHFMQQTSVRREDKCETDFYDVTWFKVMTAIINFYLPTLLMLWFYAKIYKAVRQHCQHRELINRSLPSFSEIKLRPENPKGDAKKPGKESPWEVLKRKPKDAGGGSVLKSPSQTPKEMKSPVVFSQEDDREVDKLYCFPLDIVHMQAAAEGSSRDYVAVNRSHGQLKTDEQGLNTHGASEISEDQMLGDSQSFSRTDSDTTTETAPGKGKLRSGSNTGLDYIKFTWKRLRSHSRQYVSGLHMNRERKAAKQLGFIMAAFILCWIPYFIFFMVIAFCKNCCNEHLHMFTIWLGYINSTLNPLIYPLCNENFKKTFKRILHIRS
Sequence of Cannabinoid receptor 1 (P21554 whole entry): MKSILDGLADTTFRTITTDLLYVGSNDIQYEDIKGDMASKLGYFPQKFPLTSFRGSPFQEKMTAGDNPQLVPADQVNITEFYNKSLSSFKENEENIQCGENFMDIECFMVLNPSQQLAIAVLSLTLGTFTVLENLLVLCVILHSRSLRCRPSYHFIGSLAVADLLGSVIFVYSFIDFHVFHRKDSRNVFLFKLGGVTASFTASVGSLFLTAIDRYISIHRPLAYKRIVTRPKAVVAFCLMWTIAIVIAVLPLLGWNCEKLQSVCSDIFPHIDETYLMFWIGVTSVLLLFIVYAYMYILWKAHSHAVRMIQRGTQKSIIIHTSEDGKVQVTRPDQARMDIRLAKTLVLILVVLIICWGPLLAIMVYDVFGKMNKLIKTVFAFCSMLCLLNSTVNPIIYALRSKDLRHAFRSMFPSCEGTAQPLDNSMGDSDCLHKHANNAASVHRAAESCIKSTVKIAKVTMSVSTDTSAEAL
Sequence of Muscarinic acetylcholine receptor M3 (P20309 whole entry): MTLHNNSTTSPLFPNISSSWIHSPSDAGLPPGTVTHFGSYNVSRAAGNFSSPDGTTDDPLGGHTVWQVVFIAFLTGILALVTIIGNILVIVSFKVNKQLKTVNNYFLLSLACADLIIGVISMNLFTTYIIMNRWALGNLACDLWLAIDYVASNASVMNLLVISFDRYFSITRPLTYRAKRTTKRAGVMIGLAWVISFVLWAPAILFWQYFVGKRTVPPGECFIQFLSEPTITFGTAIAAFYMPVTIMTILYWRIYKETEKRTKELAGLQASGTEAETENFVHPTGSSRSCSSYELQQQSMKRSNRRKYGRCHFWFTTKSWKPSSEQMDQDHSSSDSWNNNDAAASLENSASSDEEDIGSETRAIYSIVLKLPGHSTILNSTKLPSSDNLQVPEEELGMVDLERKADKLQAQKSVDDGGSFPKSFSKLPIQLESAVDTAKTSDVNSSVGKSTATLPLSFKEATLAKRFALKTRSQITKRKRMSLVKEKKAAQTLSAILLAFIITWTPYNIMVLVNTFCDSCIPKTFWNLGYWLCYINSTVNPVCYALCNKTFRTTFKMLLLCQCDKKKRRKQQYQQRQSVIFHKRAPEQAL
Sequence of Mu-type opioid receptor (P35372 whole entry): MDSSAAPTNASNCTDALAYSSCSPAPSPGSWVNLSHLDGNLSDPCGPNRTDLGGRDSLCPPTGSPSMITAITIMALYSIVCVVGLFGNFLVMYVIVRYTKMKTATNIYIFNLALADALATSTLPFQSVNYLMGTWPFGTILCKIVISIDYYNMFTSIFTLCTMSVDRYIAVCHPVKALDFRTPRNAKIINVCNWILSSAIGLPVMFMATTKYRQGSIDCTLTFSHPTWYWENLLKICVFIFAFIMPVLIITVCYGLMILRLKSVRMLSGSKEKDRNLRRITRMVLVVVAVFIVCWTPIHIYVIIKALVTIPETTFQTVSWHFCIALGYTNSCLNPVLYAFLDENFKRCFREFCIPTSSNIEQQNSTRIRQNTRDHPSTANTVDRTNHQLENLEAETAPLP
T1 sequence (P28223 whole entry): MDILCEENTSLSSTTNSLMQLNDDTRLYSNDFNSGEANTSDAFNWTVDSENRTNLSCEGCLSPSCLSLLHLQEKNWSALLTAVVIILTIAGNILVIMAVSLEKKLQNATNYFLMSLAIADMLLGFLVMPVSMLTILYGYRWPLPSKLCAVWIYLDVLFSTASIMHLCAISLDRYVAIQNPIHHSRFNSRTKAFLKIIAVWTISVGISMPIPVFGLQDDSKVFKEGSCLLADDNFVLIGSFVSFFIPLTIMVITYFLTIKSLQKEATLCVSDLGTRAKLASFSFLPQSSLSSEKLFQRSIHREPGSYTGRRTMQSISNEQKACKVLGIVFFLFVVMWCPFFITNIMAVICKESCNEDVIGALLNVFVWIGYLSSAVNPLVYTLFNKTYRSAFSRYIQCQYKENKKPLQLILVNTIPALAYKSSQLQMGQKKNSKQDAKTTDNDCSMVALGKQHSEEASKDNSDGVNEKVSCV
Sequence of Gamma-aminobutyric acid receptor subunit alpha-1 (P62813 whole entry): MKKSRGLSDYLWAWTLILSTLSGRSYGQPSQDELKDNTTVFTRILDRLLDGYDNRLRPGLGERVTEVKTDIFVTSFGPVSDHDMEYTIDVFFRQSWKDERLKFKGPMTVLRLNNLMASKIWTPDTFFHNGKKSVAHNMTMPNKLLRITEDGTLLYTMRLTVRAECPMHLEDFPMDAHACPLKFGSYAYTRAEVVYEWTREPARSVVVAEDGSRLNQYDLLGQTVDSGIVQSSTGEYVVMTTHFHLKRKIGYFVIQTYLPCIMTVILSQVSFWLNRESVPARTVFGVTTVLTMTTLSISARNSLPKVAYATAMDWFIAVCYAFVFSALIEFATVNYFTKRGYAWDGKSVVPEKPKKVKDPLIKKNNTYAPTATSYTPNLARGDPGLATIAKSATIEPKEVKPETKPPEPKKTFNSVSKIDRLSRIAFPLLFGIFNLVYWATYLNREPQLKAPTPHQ

Compound	AC50 [1] [µM]	AC50 (Cannabinoid receptor 1) [µM]	AC50 [2] [µM]	AC50 (Histamine H1 receptor) [µM]	AC50 [3] [µM]	AC50 [4] [µM]	AC50 (Glucocorticoid receptor) [µM]	AC50 (Progesterone receptor [5]) [µM]	AC50 (Progesterone receptor [6])	AC50 (Mu-type opioid receptor) [µM]	AC50 [7] [µM]
CO/N=C(\C(=O)N[C@@H]1C(=O)N2C(C(=O)[O-])=C(C[N+]3(C)CCCC3)CS[C@H]12)c1csc(N)n1	> 300	> 300	> 30	> 300	> 300	> 30	> 30	> 300	> 30 µM and 140 µM	–	–
COC(=O)N[C@H](C(=O)N1CCC[C@H]1c1nc(-c2ccc(-c3ccc(-c4c[nH]c([C@@H]5CCCN5C(=O)[C@@H](NC(=O)OC)C(C)C)n4)cc3)cc2)c[nH]1)C(C)C	> 30	–	> 30	> 30	> 30	> 30	> 30	> 30	–	–	–
CC(=O)c1ccc2c(c1)N(CCCN1CCN(CCO)CC1)c1ccccc1S2 [ACETOPHENAZINE]	> 30	> 30	–	0.049	> 30	0.87	–	> 30	> 3 µM	–	–
COC(=O)N[C@H](C(=O)N[C@@H](Cc1ccccc1)[C@@H](O)CN(Cc1ccc(-c2ccccn2)cc1)NC(=O)[C@@H](NC(=O)OC)C(C)(C)C)C(C)(C)C [ATAZANAVIR]	> 30	–	> 10	> 10	> 10	> 10	> 30	> 30	> 30 µM	–	–
CN1CCCC(n2nc(Cc3ccc(Cl)cc3)c3ccccc3c2=O)CC1 (stereo not drawn) [AZELASTINE]	> 30	> 30	–	–	> 30	4.6	–	> 30	> 30 µM	–	–
N[C@@H](C(=O)N[C@@H]1C(=O)N2C(C(=O)O)=C(Cl)CS[C@H]12)c1ccccc1 [CEFACLOR ANHYDROUS]	> 30	> 30	–	> 30	> 30	> 30	> 30	> 30	> 30 µM	–	–
COc1cc2c(cc1OC)C(=O)C(CC1CCN(Cc3ccccc3)CC1)C2 (stereo not drawn) [DONEPEZIL]	> 30	> 30	> 10	> 10	> 30	> 30	–	–	–	> 30	> 30
C[C@@H]1O[C@@H]1P(=O)(O)O [FOSFOMYCIN]	> 30	–	> 10	> 10	> 10	> 10	> 30	> 30	> 30 µM	–	–
COc1ccc2c(c1)C(=O)N(CCc1ccc(S(=O)(=O)NC(=O)NC3CCCCC3)cc1)C(=O)C2(C)C [GLIQUIDONE]	> 30	–	> 30	> 30	> 30	13	> 30	> 30	> 30 µM	–	–
CC(C)Cc1ccc(CC(=O)O)cc1 [IBUFENAC]	> 30	> 30	–	> 30	> 30	> 30	–	> 30	> 30 µM	–	–
CN1C(=O)CC(C)(c2ccccc2)C1=O (stereo not drawn) [METHSUXIMIDE]	> 30	–	> 10	> 10	> 10	> 10	> 10	> 10	> 10 µM	–	–
NC(=O)c1ncn([C@@H]2O[C@H](CO)[C@@H](O)[C@H]2O)c1O [MIZORIBINE]	> 30	> 30	–	> 30	> 30	> 30	> 30	> 30	> 30 µM	–	–
OCCN1CCN(CCCN2c3ccccc3C=Cc3ccccc32)CC1 [OPIPRAMOL]	> 30	> 30	–	0.081	> 30	28	> 30	> 30	> 30 µM	19.4	27.5
NC(=O)c1cnccn1 [PYRAZINAMIDE]	–	> 30	> 30	–	–	–	> 30	> 30	> 30 µM	> 30	> 30
O=C(NC[C@H]1CN(c2ccc(N3CCOCC3=O)cc2)C(=O)O1)c1ccc(Cl)s1 [RIVAROXABAN]	> 30	> 30	–	> 30	> 30	> 30	–	> 30	> 30 µM	> 30	> 30
CNC(=O)c1cc(Oc2ccc(NC(=O)Nc3ccc(Cl)c(C(F)(F)F)c3)cc2)ccn1 [SORAFENIB]	> 30	> 30	> 30	> 30	–	–	> 30	> 30	> 30 µM	–	–
CC(C(=O)O)c1ccc(C(=O)c2cccs2)cc1 (stereo not drawn) [SUPROFEN]	> 30	–	> 10	> 10	> 10	> 10	> 10	> 10	> 10 µM	–	–
CS(=O)(=O)c1ccc([C@@H](O)[C@@H](CO)NC(=O)C(Cl)Cl)cc1 [THIAMPHENICOL]	–	> 30	> 30	–	–	–	> 30	> 30	> 30 µM	> 30	> 30
Cc1ccc(C(=O)c2cc(O)c(O)c([N+](=O)[O-])c2)cc1 [TOLCAPONE]	> 30	–	> 10	> 10	> 10	> 10	> 30	> 30	1.09 µM	–	–
CCCS(=O)(=O)Nc1ccc(F)c(C(=O)c2c[nH]c3ncc(-c4ccc(Cl)cc4)cc23)c1F [VEMURAFENIB]	> 30	> 30	> 30	> 30	> 30	> 30	> 30	23	–	–	–
OCc1cc([C@@H](O)CNCCCCCCOCCOCc2c(Cl)cccc2Cl)ccc1O [VILANTEROL]	> 30	> 30	–	> 30	> 30	23	–	> 30	> 30 µM	–	–
